What was measured:
[1] = target: T1, His-AKT (Full Length) (Homo sapiens, UniProt P31749); test: AKT enzyme assay; format: biochemical; conditions: 160 uM ATP, 90 min at 25 C, off-chip mobility shift (Caliper)
T1 construct: His-AKT (Full Length); His; purchased Invitrogen P2999
Experimental: A TTP Mosquito liquid handling instrument was used to place 125 nl of the appropriate concentration of inhibitor in 100% DMSO (for a dose response curve calculation) into each well of a 384-well plate. To this reaction components were added to a final volume of 12.5 μl: • 0.1 ng/μ1 His-AKT (Full Length), (Invitrogen, Part # P2999, Lot #641228C). • 160 uM ATP (Fluka, 02055) • 1 mM DTT (Sigma, D0632) • 1 mM MgCl2 (Sigma, M1028) • 1 μM substrate peptide (sequence FITC-AHA-GRPRTSSFAEG-NH2), synthesized by Tufts Peptide Synthesis service. • 100 mM HEPES pH 7.5 (Calbiochem, 391338) • 0.015% Brij-35 (Sigma, B4184)
The reaction was incubated for 90 min at 25 C, and then stopped by the addition of 70 μl of Stop buffer (100 mM HEPES pH 7.5, 0.015% Brij-35, 10 mM EDTA (Sigma, E7889)).
The plate was read on a Caliper LC 3000 in an Off-Chip mobility shift assay format, using the following parameters for a 12-sipper chip: screening pressure—2.3 psi, upstream voltage—500, and downstream voltage—3000. These conditions cause unphosphorylated substrate and phosphorylated product peptide to resolve as separate peaks allowing direct measurement of percentage of conversion of substrate to product. The percent conversion was plotted against concentration of inhibitor to produce a sigmoidal dose response curve, from which an IC50 was calculated.

[2] = target: T2, P70S6K (T412E mutant) (Homo sapiens, UniProt P23443, T412E); test: P70S6K enzyme assay; format: biochemical; conditions: 24 μM ATP, 90 min at 25° C., mobility shift (Caliper)
T2 construct: purchased Millipore
T2 sequence (P23443 whole entry T412E): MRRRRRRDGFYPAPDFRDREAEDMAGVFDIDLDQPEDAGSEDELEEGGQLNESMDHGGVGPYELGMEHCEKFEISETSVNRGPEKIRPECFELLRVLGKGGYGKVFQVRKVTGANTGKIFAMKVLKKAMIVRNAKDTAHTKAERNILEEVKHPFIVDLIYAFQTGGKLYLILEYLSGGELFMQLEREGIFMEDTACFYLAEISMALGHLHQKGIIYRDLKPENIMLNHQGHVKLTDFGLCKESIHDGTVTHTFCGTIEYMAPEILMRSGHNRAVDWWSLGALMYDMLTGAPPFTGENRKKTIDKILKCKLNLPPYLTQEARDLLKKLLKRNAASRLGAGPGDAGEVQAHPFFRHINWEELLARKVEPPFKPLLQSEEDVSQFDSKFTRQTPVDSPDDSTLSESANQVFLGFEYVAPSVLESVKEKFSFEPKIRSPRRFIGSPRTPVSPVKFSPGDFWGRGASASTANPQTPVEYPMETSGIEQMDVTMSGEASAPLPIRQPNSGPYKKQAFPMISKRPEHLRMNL
Experimental: P70S6K inhibitor compounds were diluted and plated in 96 well plates. A reaction mixture including the following components was then added to the compound plate to initiate the enzyme reaction; P70S6K (3 nM, T412E mutant, Millipore) was mixed with 24 μM ATP in an assay buffer containing 100 mM Hepes (pH 7.5), 5 mM MgCl2, 1 mM DTT, 0.015% Brij and 1 μM of the substrate peptide FITC-AHA-AKRRRLSSLRA-OH (derived from the S6 ribosomal protein sequence, FITC=fluorescein isothiocyanate, AHA=6-aminohexanoic acid). The reaction was incubated for 90 min at 25° C., before the addition of 10 mM EDTA to stop the reaction. The proportion of substrate and product (phosphorylated) peptide was analysed on a Caliper Life Sciences Lab Chip 3000, using a pressure of −1.4 psi, and upstream and downstream voltages of −3000 and −700 respectively. Product peaks were resolved before substrate peaks on the resulting chromatograms.

T1 sequence (P31749 whole entry): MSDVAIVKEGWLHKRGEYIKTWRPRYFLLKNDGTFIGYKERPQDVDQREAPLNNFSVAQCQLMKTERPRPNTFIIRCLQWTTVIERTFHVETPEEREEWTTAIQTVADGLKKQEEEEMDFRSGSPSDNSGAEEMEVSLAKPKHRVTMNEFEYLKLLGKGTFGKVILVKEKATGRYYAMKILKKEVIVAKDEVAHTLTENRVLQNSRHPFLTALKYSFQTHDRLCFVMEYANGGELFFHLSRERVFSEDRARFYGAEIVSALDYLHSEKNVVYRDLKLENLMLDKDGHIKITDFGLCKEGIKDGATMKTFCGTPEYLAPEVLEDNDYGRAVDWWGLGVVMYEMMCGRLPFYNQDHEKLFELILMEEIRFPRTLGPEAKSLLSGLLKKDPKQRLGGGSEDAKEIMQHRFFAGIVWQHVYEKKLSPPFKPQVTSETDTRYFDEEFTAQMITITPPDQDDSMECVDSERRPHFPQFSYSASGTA

SMILES | IC50 [1] | IC50 [2]
Cc1cc(-c2cn(CCN3CCC3)c(C3CCN(c4ncnc(N)c4C(C)C)CC3)n2)ccc1F [Compound 4, 6-{4-[1-(2-Azetidin-1-yl-ethyl)-4-(4-fluoro-3-methyl-phenyl)-1H-imidazol-2-yl]-piperidin-1-yl}-5-isopropyl-pyrimidin-4-ylamine] | 3 to 15 nM | 3 to 15 nM
CC(C)c1c(N)ncnc1N1CCC(c2nc(-c3ccnc(C(F)(F)F)c3)cn2CCN2CCC2)CC1 [Compound 5, 6-{4-[1-(2-Azetidin-1-yl-ethyl)-4-(2-trifluoromethyl-pyridin-4-yl)-1H-imidazol-2-yl]-piperidin-1-yl}-5-isopropyl-pyrimidin-4-ylamine] | 3 to 15 nM | < 3 nM
Cc1cc(-c2cn(CC3CN(C)C3)c(C3CCN(c4ncnc(N)c4Cl)CC3)n2)ccc1F [Compound 6, 5-Chloro-6-{4-[4-(4-fluoro-3-methyl-phenyl)-1-(1-methyl-azetidin-3-ylmethyl)-1H-imidazol-2-yl]-piperidin-1-yl}-pyrimidin-4-ylamine] | 3 to 15 nM | 3 to 15 nM
CC(C)c1cc(-c2cn(CCN3CCC3)c(C3CCN(c4ncnc(N)c4C4CCC4)CC3)n2)ccn1 [Compound 11, 6-{4-[1-(2-Azetidin-1-yl-ethyl)-4-(2-isopropyl-pyridin-4-yl)-1H-imidazol-2-yl]-piperidin-1-yl}-5-cyclobutyl-pyrimidin-4-ylamine] | < 3 nM | 3 to 15 nM
CC(C)Oc1c(N)ncnc1N1CCC(c2nc(-c3ccnc(C(C)C)c3)cn2CCN2CCC2)CC1 [Compound 12, 6-{4-[1-(2-Azetidin-1-yl-ethyl)-4-(2-isopropyl-pyridin-4-yl)-1H-imidazol-2-yl]-piperidin-1-yl}-5-isopropoxy-pyrimidin-4-ylamine] | 3 to 15 nM | 3 to 15 nM

Next, values leading:

IC50 [1] | IC50 [2] | SMILES
< 3 nM | < 3 nM | CN(C)CCn1cc(-c2ccnc(C(F)(F)F)c2)nc1C1CCN(c2ncnc(N)c2Br)CC1 [Compound 25]
3 to 15 nM | < 3 nM | CN(C)CCn1cc(-c2ccnc(C(F)(F)F)c2)nc1C1CCN(c2ncnc(N)c2C#N)CC1 [Compound 29]
> 15 nM | 3 to 15 nM | CC(C)c1cc(-c2cn(CCN3CCC3)c(C3CCN(c4ncnc(N)c4-c4ccncc4)CC3)n2)ccn1 [Compound 13, 6-{4-[1-(2-Azetidin-1-yl-ethyl)-4-(2-isopropyl-pyridin-4-yl)-1H-imidazol-2-yl}-piperidin-1-yl]-5-Pyridin-4-yl-pyrimidin-4-ylamine]
> 15 nM | < 3 nM | CC(C)c1cc(-c2cn(CCN3CCC3)c(C3CCN(c4ncnc(N)c4-c4ccccc4)CC3)n2)ccn1 [Compound 18, 6-{4-[1-(2-Azetidin-1-yl-ethyl)-4-(2-isopropyl-pyridin-4-yl)-1H-imidazol-2-yl]-piperidin-1-yl}-5-phenyl-pyrimidin-4-ylamine]
3 to 15 nM | 3 to 15 nM | CC(C)c1cc(-c2cn(CCN3CCC3)c(C3CCN(c4ncnc(N)c4OCC(F)(F)F)CC3)n2)ccn1 [Compound 14, 6-{4-[1-(2-Azetidin-1-yl-ethyl)-4-(2-isopropyl-pyridin-4-yl)-1H-imidazol-2-yl}-piperidin-1-yl]-5-(2,2,2-trifluoro-ethoxy)-Pyrimidin-4-ylamine]
< 3 nM | < 3 nM | Cc1cc(-c2cn(CCN(C)C)c(C3CCN(c4ncnc(N)c4Cl)CC3)n2)ccc1F [Compound 22]
> 15 nM | 3 to 15 nM | CCc1c(N)ncnc1N1CCC(c2nc(-c3ccnc(C(F)(F)F)c3)cn2CCN(C)C)CC1 [Compound 27]
3 to 15 nM | 3 to 15 nM | CC(C)c1cc(-c2cn(CCN3CCC3)c(C3CCN(c4ncnc(N)c4C4CC4)CC3)n2)ccn1 [Compound 17, 6-{4-[1-(2-Azetidin-1-yl-ethyl)-4-(2-isopropyl-pyridin-4-yl)-1H-imidazol-2-yl]-piperidin-1-yl}-5-cyclopropyl-pyrimidin-4-ylamine]

From patent US9434714B2, “Pyrimidine imidazole amines as modulators of kinase activity” (Merck Patent GmbH, priority 2014, dated 2016)
